System: DLBCL patient-derived xenografted (PDX) models
Experiment: Compound 1 efficacy (TGI) in DLBCL PDX models, GCB vs non-GCB
Format: in vivo, mice
Settings: p.o. 7.5 mg/kg BID
From the text: DLBCL patient-derived xenografted (PDX) models were established in immunodeficient NCG (NOD-Prkdcem26Cd52Il2rgem26Cd22/NjuCrl) mice. These models were classified into GCB and non-GCB subgroups based on immunohistochemistry (IHC) staining using Hans algorithm (Hans, C. P., et al., Blood, 2004. 103 (1): p. 275-282). For efficacy studies, tumor tissues were inoculated subcutaneously into NCG mice. When tumors reached 100-200 mm^3, mice were randomized into each group with 7-10 mice/group based on tumor volume. Compound 1 was formulated with 0.5% methyl cellulose as vehicle and treatment was started on the day of randomized grouping. Compound 1 was administrated p.o., 7.5 mg/(kg body weight), BID. Tumor volumes were measured twice weekly in two dimensions using a caliper, and the volume were expressed in mm^3 using the formula:
V=0.5(a×b^2) where a and b are the long and short diameters of the tumor, respectively.
Tumor growth inhibition (TGI) was calculated using the following formula:
% TGI=100×[1−(treatmentvt−treatmentv0)/(vehiclevt−Vehiclev0)]
Treatmentvt=tumor volume of treatment group at time t.
treatmentv0=tumor volume of treatment group at time of treatment started.
Vehiclevt=tumor volume of vehicle group at time t.
Vehiclev0=tumor volume of vehicle group at time of treatment started.
P value was calculated using two tails t test.

## C=CC(=O)N1CCC([C@@H]2CCNc3c(C(N)=O)c(-c4ccc(Oc5ccccc5)cc4)nn32)CC1 [Compound 1, (S)-7-(1-acryloylpiperidin-4-yl)-2-(4-phenoxyphenyl)-4,5,6,7-tetra-hydropyrazolo[1,5-a]pyrimidine-3-carboxamide]
GCB subtype PDX models
  TGI (mean±SD): 25.5±11.96%
non-GCB DLBCL PDX models
  TGI (mean±SD): 63.60±42.92%

Reference: patent US20230089557A1, “METHODS OF TREATING DLBCL USING BTK INHIBITORS AND COMBINATIONS THEREOF” (BEIGENE SWITZERLAND GMBH, priority 2020, published 2023)
